Reference: PubChem BioAssay (NCI)
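These data come from cells grown in 96-well plates and exposed to compound for 48 hours at five concentrations. GI50: concentration for 50% inhibition of growth. Definition used: TGI = concentration required for complete inhibition of growth.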

How the values were obtained:
Test in all cases: NCI tumour cell line growth inhibition, 48 h
EKVX NSCLC = test system: EKVX NSCLC
OVCAR-4 ovarian = test system: OVCAR-4 ovarian
RXF 393 renal = test system: RXF 393 renal
SNB-19 CNS = test system: SNB-19 CNS
A498 renal = test system: A498 renal
OVCAR-5 ovarian = test system: OVCAR-5 ovarian
UACC-257 melanoma = test system: UACC-257 melanoma
HCT-116 colon = test system: HCT-116 colon
DU-145 prostate = test system: DU-145 prostate
MDA-MB-435 = test system: MDA-MB-435

Structure (SMILES)	TGI (EKVX NSCLC) [µM]	TGI (OVCAR-4 ovarian) [µM]	TGI (RXF 393 renal) [µM]	TGI (SNB-19 CNS) [µM]	TGI (A498 renal) [µM]	TGI (OVCAR-5 ovarian) [µM]	TGI (UACC-257 melanoma) [µM]	TGI (HCT-116 colon) [µM]	GI50 (DU-145 prostate) [µM]	TGI (DU-145 prostate) [µM]	GI50 (EKVX NSCLC) [µM]	GI50 (HCT-116 colon) [µM]	GI50 (MDA-MB-435) [µM]	TGI (MDA-MB-435) [µM]	GI50 (OVCAR-4 ovarian) [µM]	GI50 (OVCAR-5 ovarian) [µM]	GI50 (RXF 393 renal) [µM]	GI50 (SNB-19 CNS) [µM]	GI50 (UACC-257 melanoma) [µM]	GI50 (A498 renal) [µM]
CCOC(=O)C1(Cc2ccc3ccccc3c2)CCCCCN1 (stereo unspecified)	> 100	> 100	83.2	> 100	–	–	–	–	–	–	–	–	–	–	–	–	–	–	–	–
Cc1cccc(N=C2NC(=O)C(CC(=O)Nc3ccc(Cl)cc3C)S2)c1 (stereo unspecified)	> 100	> 100	> 100	> 100	> 100	> 100	> 100	–	–	–	–	–	–	–	–	–	–	–	–	–
CC12C(=O)N(CCN)C(=O)C1C1c3ccccc3C2c2ccccc21 (stereo unspecified)	> 100	> 100	–	> 100	> 100	> 100	> 100	> 100	–	–	–	–	–	–	–	–	–	–	–	–
COc1ccc(-n2sc(=O)n(Cc3ccc(COC(=O)C(C)c4ccc(CC(C)C)cc4)cc3)c2=O)cc1 (stereo unspecified)	14.3	1.99	3.79	14.5	–	11.8	8.81	2.08	1.85	6.34	7.36	0.979	1.32	3.93	0.92	5.58	1.27	7.38	2.02	–
CS[C@@]1(C(=O)Nc2ccc3[nH]nc(-c4ccc(OC(C)C)nc4)c3c2)CCN(CC(=O)N2CC=C(c3ccc(-c4ncn(C)n4)cc3)CC2)C1	–	–	–	> 100	0.641	> 100	–	> 100	> 100	> 100	–	0.161	0.355	> 100	–	0.131	–	> 100	–	0.176
CCOC(=O)N1CCC(=O)C[C@@H]1C/C=C/P1(=O)O[C@H](c2ccccc2)C(C)N1C(C)C (stereo partly specified)	> 100	> 100	> 100	> 100	–	> 100	> 100	> 100	–	–	–	–	–	–	–	–	–	–	–	–
O=C(/C=C/c1ccc(Cl)c(Cl)c1)C1CCC(Cl)CC1 (stereo unspecified)	32	39.6	37.9	39	83.1	43.3	35.1	25.1	–	–	–	–	–	–	–	–	–	–	–	–
Nn1c(N=Nc2c(O)[nH]c3ccccc23)n[nH]c1=S	> 100	> 100	95.1	> 100	> 100	> 100	> 100	> 100	–	–	–	–	–	–	–	–	–	–	–	–
N#Cc1c(Oc2ccc(F)c(NC(=O)Cc3cccc(C(F)(F)F)c3)c2)ccc2nc(NC(=O)C3CC3)sc12	–	> 100	5.39	> 100	2.56	> 100	0.203	> 100	2.34	> 100	–	0.251	0.137	> 100	2.6	0.412	1.31	0.828	0.0253	0.224
CON	> 100	> 100	> 100	> 100	–	> 100	> 100	> 100	> 100	> 100	> 100	> 100	> 100	> 100	> 100	> 100	> 100	> 100	> 100	–
COC(=O)C1=Cc2c(OC)cc(OC)c(OC)c2[C@H](c2cc(OC)c(OC)cc2OC)C1C(=O)OC (stereo partly specified)	> 100	> 100	> 100	> 100	> 100	> 100	–	> 100	–	–	–	–	–	–	–	–	–	–	–	–
COc1ccc(-c2cncn2-c2cc(OC)c(OC)c(OC)c2)cc1F	> 100	> 100	–	> 100	25	> 100	–	15.8	< 0.0342	> 100	0.153	< 0.0158	–	–	1.19	0.0789	< 0.0278	< 0.0146	–	< 0.0495
CCC[CH2][Sn]1([CH2]CCC)[O]C(=O)c2cc(C)ccc2[O]1	1.94	2.06	0.555	1.93	1.79	3.04	1.56	2.33	–	–	0.579	1.12	–	–	0.707	1.66	0.283	0.7	0.419	0.565
C[C@]12CCCC(=O)C1C[C@H](C(=O)O)CC2 (stereo partly specified)	–	> 100	–	> 100	> 100	> 100	> 100	> 100	–	–	–	–	–	–	–	–	–	–	–	–
CCc1ccccc1-n1c(N)c(C#N)c(-c2ccc(OC)c(OC)c2)c(C#N)c1=O	> 100	63	35.3	59	–	55.3	72.6	31.1	29.6	> 100	41.1	17	34.7	> 100	23.1	20.5	16.3	20.5	23.9	–
COc1cc(C2C(C#N)=C(N)Oc3cc4c(cc32)OCO4)cc2c1OCO2 (stereo unspecified)	> 100	> 100	0.546	> 100	–	> 100	> 100	> 100	0.362	> 100	0.594	0.455	–	–	0.931	1.29	0.146	0.709	0.9	0.103
CCOC(=O)CNC(=O)C(CSC(=O)N(C)O)NC(=O)CCC(N)C(=O)O (stereo unspecified)	> 2000	> 2000	> 2000	> 2000	> 2000	–	> 2000	–	–	–	> 2000	> 2000	–	–	> 2000	–	> 2000	> 2000	> 2000	> 2000
CP(C)C.[Ag][I]	> 100	69.5	> 100	> 100	–	> 100	> 100	> 100	–	–	–	–	–	–	–	–	–	–	–	–
